Assay results published in US12410148B2, “Antibody drug conjugates” (Pharma Mar, S.A., priority 2013, dated 2025).
Where “and” joins values, the source holds several entries; their conditions need not be identical. Equal entries are not always repeated. Where two headings read alike, the source gives them in different places.

Tests used:
[1] = test system: Raji, RPMI-8226 and Karpas-299 cells; assay: In vitro cytotoxicity, whole CD20 cell panel
From the text: (§1) All tumor cell lines used in this study were obtained from the American Type Culture Collection (ATCC), unless otherwise indicated; BT-474 (ATCC HTB-20, Breast Ductal Carcinoma), SK-BR-3 (ATCC HTB-30, Breast Adenocarcinoma) and HCC-1954 (ATCC CRL-2338, Breast Ductal Carcinoma), all HER2+; MDA-MB-231 (ATCC HTB-26, Breast Adenocarcinoma) and MCF-7 (ATCC HTB-22 Breast Adenocarcinoma, pleural effusion), all HER2-; SK-OV-3 (ATCC HTB-77, Ovary Adenocarcinoma), HER2+; NB-4 (Acute Promyelocytic Leukemia, APL, CD13+, M. Lanotte et al. (1991) NB4, a maturation inducible cell line with t(15;17) marker isolated from a human acute promyelocytic leukemia (M3). Blood 77, 1080-1086), (CD13+) and U937 (ATCC CRL-1 593.2, Histiocytic Lymphoma, CD13+ and CD4+); Raji (ATCC CCL-86, Burkitt's Lymphoma) (CD13−, CD20+, CD5−, and CD4−); RPMI-8226 (ATCC CRM-CCL-155, Multiple Myeloma) (CD13−, CD20−, CD5− and CD4−); Karpas-299 (DSMZ ACC-31, Non-Hodgkin's Lymphoma) (CD20−, CD5+, and CD4+); MOLT-4 (ATCC CRL-1 582, Acute Lymphoblastic Leukemia, CD5+). In addition, the two Raji cell (ATCC CCL-86, Burkitt's Lymphoma) clones used in this study Raji-clone #10 (high CD5 expression) and Raji-clone18 (null CD5 expression), were provided by Dr. Juan M. Zapata (Instituto de Investigaciones Biomedicas “Alberto Sols”, CSIC-UAM, Madrid, Spain). Cells were maintained at 37° C., 5% CO 2 and 95% humidity in Dulbecco's Modified Eagle's Medium (DMEM) (for MCF and MDA-MB-231 cells), RPMI-1640 (for SK-BR-3, HCC-1954, NB-4, U937, Raji, RPMI-8226, Karpas-299, MOLT-4, Raji-clone #10 and Raji-clone #18 cells), RPMI-1640+1% ITS (for BT-474 cells) or McCOyS (for SK-OV-3 cells), all media supplemented with 10% Fetal Calf Serum (FCS) and 100 units/mL penicillin and streptomycin.
For suspension cells: A standard metabolic assay using MTT (3-(4,5-Dimethylthiazol-2-yl)-2,5-diphenyltetrazolium bromide) was adapted for quantitative measurement of cell growth and cytotoxicity, as described in T. Mosmann (1983) Rapid colorimetric assay for cellular growth and survival: Application to proliferation and cytotoxicity assays. J. Immunol. Meth., 65, 55-63. Briefly, MTT solution was added to the cell cultures at a final concentration of 0.5 mg/mL, and incubated for 1 to 4 hours at 37° C. until formazan crystals are formed. Culture medium is carefully removed from the cell cultures and formazan crystals resuspended in 100 μl DMSO. After mixing to assure solubilization, the quantity of formazan (presumably directly proportional to the number of viable cells) is measured by recording changes in absorbance at 570 nm using a plate reading spectrophotometer. Cell survival was expressed as percentage of control, untreated cell survival.
(§2) The IC50 value refers to the concentration of compound inducing a 50% of cell death as compared to the control cell survival.
The in vitro cytotoxic activity of ADC12 along with the parent cytotoxic Compounds 1, 4, and 40, was evaluated was assayed against different human cancer cell lines expressing or not the CD20 antigen, including Raji (CD20 positive cells); RPMI-8226 and Karpas-299 (CD20 negative cells). Standard dose-response (DR) curves for 72 hours were performed.

SK-BR-3 cells = assay: In vitro cytotoxicity, SRB assay, 72 h dose-response; format: cell-based; conditions: Homo sapiens, SK-BR-3, 72 h, HER2+; 72 h; read-out: IC50
From the text: All tumor cell lines used in this study were obtained from the American Type Culture Collection (ATCC), unless otherwise indicated; BT-474 (ATCC HTB-20, Breast Ductal Carcinoma), SK-BR-3 (ATCC HTB-30, Breast Adenocarcinoma) and HCC-1954 (ATCC CRL-2338, Breast Ductal Carcinoma), all HER2+; MDA-MB-231 (ATCC HTB-26, Breast Adenocarcinoma) and MCF-7 (ATCC HTB-22 Breast Adenocarcinoma, pleural effusion), all HER2-; SK-OV-3 (ATCC HTB-77, Ovary Adenocarcinoma), HER2+; NB-4 (Acute Promyelocytic Leukemia, APL, CD13+, M. Lanotte et al. (1991) NB4, a maturation inducible cell line with t(15;17) marker isolated from a human acute promyelocytic leukemia (M3). […] Cells were maintained at 37° C., 5% CO 2 and 95% humidity in Dulbecco's Modified Eagle's Medium (DMEM) (for MCF and MDA-MB-231 cells), RPMI-1640 (for SK-BR-3, HCC-1954, NB-4, U937, Raji, RPMI-8226, Karpas-299, MOLT-4, Raji-clone #10 and Raji-clone #18 cells), RPMI-1640+1% ITS (for BT-474 cells) or McCOyS (for SK-OV-3 cells), all media supplemented with 10% Fetal Calf Serum (FCS) and 100 units/mL penicillin and streptomycin.
For adherent cells: A colorimetric assay using sulforhodamine B (SRB) was adapted for quantitative measurement of cell growth and cytotoxicity, as described in V. Vichai and K. Kirtikara (2006) Sulforhodamine B colorimetric assay for cytotoxicity screening. […] Briefly, cells were seeded in 96-well microtiter plates and allowed to stand for 24 hours in drug-free medium before treatment with vehicle alone or the indicated compounds for 72 hours. For quantification, cells were washed twice with phosphate buffered saline (PBS), fixed for 15 min in 1% glutaraldehyde solution, rinsed twice with PBS, stained in 0.4% SRB-1% acetic acid solution for 30 min, rinsed several times with 1% acetic acid solution and air-dried. SRB was then extracted in 10 mM trizma base solution and the optical density measured at 490 nm in a microplate spectrophotometer. Cell survival was expressed as percentage of control, untreated cell survival.

[2] = test system: HCC-1954, SK-BR-3, MDA-MB-231 and MCF-7 cells; assay: In vitro cytotoxicity, whole breast cancer cell panel
From the text: as §1
For adherent cells: A colorimetric assay using sulforhodamine B (SRB) was adapted for quantitative measurement of cell growth and cytotoxicity, as described in V. Vichai and K. Kirtikara (2006) Sulforhodamine B colorimetric assay for cytotoxicity screening. Nature Protocols, 1, 1112-1 116. Briefly, cells were seeded in 96-well microtiter plates and allowed to stand for 24 hours in drug-free medium before treatment with vehicle alone or the indicated compounds for 72 hours. For quantification, cells were washed twice with phosphate buffered saline (PBS), fixed for 15 min in 1% glutaraldehyde solution, rinsed twice with PBS, stained in 0.4% SRB-1% acetic acid solution for 30 min, rinsed several times with 1% acetic acid solution and air-dried. SRB was then extracted in 10 mM trizma base solution and the optical density measured at 490 nm in a microplate spectrophotometer. Cell survival was expressed as percentage of control, untreated cell survival.
as §2
Standard dose-response (DR) curves for 72 hours were performed.

MCF-7 cells = assay: In vitro cytotoxicity, SRB assay, 72 h dose-response; format: cell-based; conditions: Homo sapiens, MCF7, 72 h, HER2−; 72 h; read-out: IC50
From the text: (§3) Nature Protocols, 1, 1112-1 116.

MDA-MB-231 cells = assay: as above; format: cell-based; conditions: Homo sapiens, MDA-MB-231, 72 h, HER2−; 72 h; read-out: IC50
From the text: as §3

HCC-1954 cells = assay: as above; format: cell-based; conditions: Homo sapiens, HCC1954, 72 h, HER2+; 72 h; read-out: IC50
From the text: as §3

[3] = Homo sapiens, read-out: IC50 values along the different cell lines tested (range), four breast cell lines
[4] = Homo sapiens, read-out: mean IC50 value across the whole cell panel, four breast cell lines
[5] = read-out: mean IC50 value across the whole cell panel, four breast cell lines

Row | Compound | cytotoxic activity ([1]; 50 μg/mL) | cytotoxic activity in DR curves ([1]; 5.0E+01 to 2.62E-05 μg/mL) | IC50 (SK-BR-3 cells) | decrease of cytotoxic activity as compared to Compound 41 ([2]; 1,3-propylenediamine group) | IC50 ([2]; Homo sapiens, read-out: IC50 values across the different cell lines tested (range), four breast cell lines) [ng/mL] | IC50 [2, 3] | IC50 [2, 4] | mean IC50 value across the whole cell panel ([2]; four breast cell lines) | IC50 (MCF-7 cells) | IC50 (MDA-MB-231 cells) | IC50 (HCC-1954 cells) | IC50 [2, 5] [nM] | decrease of cytotoxic activity as compared to Compound 40 ([2]; thiol containing tail)
1 | Rituximab: anti-CD20 monoclonal antibody [reference compound] | virtually inactive | rather inactive | – | – | – | – | – | – | – | – | – | – | –
2 | CC#CC[C@@H](C/C=C\NC(=O)[C@@H](NC(=O)\C=C/C=C\C(C)=C\[C@H](C)[C@@H]1CC=C(OC)C(=O)O1)C(C)(C)C)OC(=O)NCCCN [Compound 24] | – | – | 0.009 µg/mL and 14.4 nM | about 2 logs | 9 to 18 | 14 nM to 28 nM and 0.009 µg/mL to 0.018 µg/mL | 0.015 µg/mL and 24 nM | 24 nM | 0.0165 µg/mL and 26.3 nM | 0.0175 µg/mL and 27.9 nM | 0.018 µg/mL and 28.7 nM | – | –
3 | CC#CC[C@@H](C/C=C\NC(=O)[C@@H](NC(=O)\C=C/C=C\C(C)=C\[C@H](C)[C@@H]1CC=C(OC)C(=O)O1)C(C)(C)C)OC(N)=O [Compound 41] | – | – | 0.00011 µg/mL and 0.193 nM | – | – | 0.075 to 0.14 ng/mL | 0.00016 µg/mL and 0.29 nM | – | 0.000265 µg/mL and 0.465 nM | 0.00018 µg/mL and 0.316 nM | 0.000104 µg/mL and 0.183 nM | 0.19 | –
4 | COC1=CC[C@@H]([C@@H](C)/C=C(C)/C=C\C=C/C(=O)N[C@H](C(=O)N/C=C\C[C@H](C/C=C(\C)Cl)OC(=O)NCCCS)C(C)(C)C)OC1=O [Compound 15] | – | – | 0.00048 µg/mL and 0.706 nM | – | – | 0.00048 µg/mL to 0.00149 µg/mL and 0.706 nM to 2.19 nM | 0.00103 µg/mL and 1.51 nM | – | 0.00145 µg/mL and 2.14 nM | 0.00149 µg/mL and 2.19 nM | 0.000675 µg/mL and 0.994 nM | – | about 8 fold
5 | C/C=C\C[C@@H](C/C=C\NC(=O)[C@@H](NC(=O)\C=C/C=C\C(C)=C\[C@H](C)[C@@H]1CC=C(OC)C(=O)O1)C(C)(C)C)OC(=O)NCCCNC(=O)CCS [Compound 18] | – | – | 0.0044 µg/mL and 6.14 nM | – | – | 0.0044 µg/mL to 0.0185 µg/mL and 6.14 nM to 25.8 nM | 0.0106 µg/mL and 14.8 nM | – | 0.0185 µg/mL and 25.8 nM | 0.0115 µg/mL and 16 nM | 0.00805 µg/mL and 11.2 nM | – | –
6 | C/C=C\C[C@@H](C/C=C\NC(=O)[C@@H](NC(=O)\C=C/C=C\C(C)=C\[C@H](C)[C@@H]1CC=C(OC)C(=O)O1)C(C)(C)C)OC(=O)NCCCNC(=O)CCCCCN1C(=O)C=CC1=O [Compound 5] | – | – | 0.019 µg/mL and 23.2 nM | – | – | 0.019 µg/mL to 0.077 µg/mL and 23.2 nM to 94.1 nM | 0.0433 µg/mL and 52.6 nM | – | 0.0775 µg/mL and 94.1 nM | 0.057 µg/mL and 69.4 nM | 0.0195 µg/mL and 23.8 nM | – | –
7 | C/C=C\C[C@@H](C/C=C\NC(=O)[C@@H](NC(=O)\C=C/C=C\C(C)=C\[C@H](C)[C@@H]1CC=C(OC)C(=O)O1)C(C)(C)C)OC(=O)NCCCN [Compound 8] | – | – | 0.0034 µg/mL and 5.41 nM | – | – | 0.0034 µg/mL to 0.00675 µg/mL and 2.94 nM to 15.1 nM | 0.00553 µg/mL and 8.79 nM | 5.45 ng/mL | 0.00675 µg/mL and 10.7 nM | 0.00655 µg/mL and 10.4 nM | 0.0054 µg/mL and 8.59 nM | 8.67 | –
8 | CC#CC[C@@H](C/C=C\NC(=O)[C@@H](NC(=O)\C=C/C=C\C(C)=C\[C@H](C)[C@@H]1CC=C(OC)C(=O)O1)C(C)(C)C)OC(=O)NCCCNC(=O)CCCCCN1C(=O)C=CC1=O [Compound 25] | – | – | 0.0255 µg/mL and 31.1 nM | – | – | 0.025 µg/mL to 0.053 µg/mL and 31 nM to 65 nM | 41 ng/mL | 49 nM | 0.053 µg/mL and 64.6 nM | > 0.1 µg/mL and > 122 nM | 0.044 µg/mL and 53.7 nM | – | –
9 | CC#CC[C@@H](C/C=C\NC(=O)[C@@H](NC(=O)\C=C/C=C\C(C)=C\[C@H](C)[C@@H]1CC=C(OC)C(=O)O1)C(C)(C)C)OC(=O)NCCCNC(=O)CCS [Compound 27] | – | – | 0.0105 µg/mL and 14.7 nM | – | – | 0.0105 µg/mL to 0.039 µg/mL and 15 nM to 55 nM | 0.025 µg/mL and 35 nM | – | 0.039 µg/mL and 54.6 nM | 0.0345 µg/mL and 48.3 nM | 0.0165 µg/mL and 23.1 nM | – | –
